# Test results published in patent US5843889A, “Glycopeptide antibiotic derivatives” (Eli Lilly and Company, priority 1997, dated 1998).
# What was measured:
# [1] = test system: Entercoccus faecalis 2041; test: MIC, standard broth micro-dilution assay; assay type: cell-based
# Description: (§1) The formula I compounds have in vitro and in vivo activity against Gram-positive pathogenic bacteria. The MIC's were determined using a standard broth micro-dilution assay.
# [2] = test system: Entercoccus gallinarum 245; test: MIC, standard broth micro-dilution assay; assay type: cell-based
# Description: as §1
Compound,MIC [1] [µg/mL],MIC [2] [µg/mL]
"CNC(CC(C)C)C(=O)NC1C(=O)NC(CC(N)=O)C(=O)NC2C(=O)NC3C(=O)NC(C(=O)NC(C(=O)O)c4cc(O)cc(O)c4-c4cc3ccc4O)C(OC3CC(C)(N)C(O)C(C)O3)c3ccc(c(Cl)c3)Oc3cc2cc(c3OC2OC(CO)C(O)C(O)C2OC2CC(C)(NCc3ccc(-c4ccc(O)cc4)cc3)C(O)C(C)O2)Oc2ccc(cc2Cl)C1O (stereo not drawn) [Compound 20, 4-[4-hydroxyphenyl]benzyl]",≤ 0.06,
CCCCCCCCc1ccc(-c2ccc(CNC3(C)CC(OC4C(Oc5c6cc7cc5Oc5ccc(cc5Cl)C(OC5CC(C)(N)C(O)C(C)O5)C5NC(=O)C(NC(=O)C7NC(=O)C(CC(N)=O)NC(=O)C(NC(=O)C(CC(C)C)NC)C(O)c7ccc(c(Cl)c7)O6)c6ccc(O)c(c6)-c6c(O)cc(O)cc6C(C(=O)O)NC5=O)OC(CO)C(O)C4O)OC(C)C3O)cc2)cc1 (stereo not drawn) [Compound 21],,8
"CCCCCC1CCC(c2ccc(CNC3(C)CC(OC4C(Oc5c6cc7cc5Oc5ccc(cc5Cl)C(OC5CC(C)(N)C(O)C(C)O5)C5NC(=O)C(NC(=O)C7NC(=O)C(CC(N)=O)NC(=O)C(NC(=O)C(CC(C)C)NC)C(O)c7ccc(c(Cl)c7)O6)c6ccc(O)c(c6)-c6c(O)cc(O)cc6C(C(=O)O)NC5=O)OC(CO)C(O)C4O)OC(C)C3O)cc2)CC1 (stereo not drawn) [Compound 34, 4-[4-pentylcyclohexyl]benzyl]",8,4
CNC(CC(C)C)C(=O)NC1C(=O)NC(CC(N)=O)C(=O)NC2C(=O)NC3C(=O)NC(C(=O)NC(C(=O)O)c4cc(O)cc(O)c4-c4cc3ccc4O)C(OC3CC(C)(N)C(O)C(C)O3)c3ccc(c(Cl)c3)Oc3cc2cc(c3OC2OC(CO)C(O)C(O)C2OC2CC(C)(NCc3c(C)c(C)c(C)c(C)c3C)C(O)C(C)O2)Oc2ccc(cc2Cl)C1O (stereo not drawn) [Compound 73],,2
"CNC(CC(C)C)C(=O)NC1C(=O)NC(CC(N)=O)C(=O)NC2C(=O)NC3C(=O)NC(C(=O)NC(C(=O)O)c4cc(O)cc(O)c4-c4cc3ccc4O)C(OC3CC(C)(N)C(O)C(C)O3)c3ccc(c(Cl)c3)Oc3cc2cc(c3OC2OC(CO)C(O)C(O)C2OC2CC(C)(NCc3ccc(I)s3)C(O)C(C)O2)Oc2ccc(cc2Cl)C1O (stereo not drawn) [Compound 74, 5-iodo-2-thienylmethyl]",≤ 0.06,≤ 0.06
"CNC(CC(C)C)C(=O)NC1C(=O)NC(CC(N)=O)C(=O)NC2C(=O)NC3C(=O)NC(C(=O)NC(C(=O)O)c4cc(O)cc(O)c4-c4cc3ccc4O)C(OC3CC(C)(N)C(O)C(C)O3)c3ccc(c(Cl)c3)Oc3cc2cc(c3OC2OC(CO)C(O)C(O)C2OC2CC(C)(NCc3ccc([N+](=O)[O-])cc3)C(O)C(C)O2)Oc2ccc(cc2Cl)C1O (stereo not drawn) [Compound 78, 4-nitrobenzyl]",≤ 0.06,
"CCN(CC)CCOc1ccc(CNC2(C)CC(OC3C(Oc4c5cc6cc4Oc4ccc(cc4Cl)C(OC4CC(C)(N)C(O)C(C)O4)C4NC(=O)C(NC(=O)C6NC(=O)C(CC(N)=O)NC(=O)C(NC(=O)C(CC(C)C)NC)C(O)c6ccc(c(Cl)c6)O5)c5ccc(O)c(c5)-c5c(O)cc(O)cc5C(C(=O)O)NC4=O)OC(CO)C(O)C3O)OC(C)C2O)cc1 (stereo not drawn) [Compound 83, 4-[2-[N,N-diethylamino]ethoxy]benzyl]",0.5,0.5
"CNC(CC(C)C)C(=O)NC1C(=O)NC(CC(N)=O)C(=O)NC2C(=O)NC3C(=O)NC(C(=O)NC(C(=O)O)c4cc(O)cc(O)c4-c4cc3ccc4O)C(OC3CC(C)(N)C(O)C(C)O3)c3ccc(c(Cl)c3)Oc3cc2cc(c3OC2OC(CO)C(O)C(O)C2OC2CC(C)(NCc3cc(-c4ccccc4)ccc3O)C(O)C(C)O2)Oc2ccc(cc2Cl)C1O (stereo not drawn) [Compound 85, 2-hydroxy-5-phenylbenzyl]",≤ 0.06,2
"CN[C@H](CC(C)C)C(=O)N[C@H]1C(=O)N[C@@H](CC(N)=O)C(=O)N[C@H]2C(=O)N[C@H]3C(=O)N[C@H](C(=O)N[C@H](C(=O)O)c4cc(O)cc(O)c4-c4cc3ccc4O)[C@H](O[C@H]3C[C@](C)(N)[C@@H](O)[C@H](C)O3)c3ccc(c(Cl)c3)Oc3cc2cc(c3O[C@@H]2O[C@H](CO)[C@@H](O)[C@H](O)[C@H]2O[C@H]2C[C@](C)(NCc3ccc(-c4cccc(F)c4)cc3)[C@@H](O)[C@H](C)O2)Oc2ccc(cc2Cl)[C@H]1O [Compound 92, 4-[3-fluorophenyl]benzyl]",,2
"CN[C@H](CC(C)C)C(=O)N[C@H]1C(=O)N[C@@H](CC(N)=O)C(=O)N[C@H]2C(=O)N[C@H]3C(=O)N[C@H](C(=O)N[C@H](C(=O)O)c4cc(O)cc(O)c4-c4cc3ccc4O)[C@H](O[C@H]3C[C@](C)(N)[C@@H](O)[C@H](C)O3)c3ccc(c(Cl)c3)Oc3cc2cc(c3O[C@@H]2O[C@H](CO)[C@@H](O)[C@H](O)[C@H]2O[C@H]2C[C@](C)(NCc3ccc(OCc4ccc(Cl)cc4)cc3)[C@@H](O)[C@H](C)O2)Oc2ccc(cc2Cl)[C@H]1O [Compound 93, 4-[4-chlorobenzyloxy]benzyl]",≤ 0.06,1
"CN[C@H](CC(C)C)C(=O)N[C@H]1C(=O)N[C@@H](CC(N)=O)C(=O)N[C@H]2C(=O)N[C@H]3C(=O)N[C@H](C(=O)N[C@H](C(=O)O)c4cc(O)cc(O)c4-c4cc3ccc4O)[C@H](O[C@H]3C[C@](C)(N)[C@@H](O)[C@H](C)O3)c3ccc(c(Cl)c3)Oc3cc2cc(c3O[C@@H]2O[C@H](CO)[C@@H](O)[C@H](O)[C@H]2O[C@H]2C[C@](C)(NCc3ccc(Oc4ccc(Cl)cc4)c([N+](=O)[O-])c3)[C@@H](O)[C@H](C)O2)Oc2ccc(cc2Cl)[C@H]1O [Compound 94, 4-[4-chlorophenoxy]-3-nitrobenzyl]",≤ 0.06,2
"CN[C@H](CC(C)C)C(=O)N[C@H]1C(=O)N[C@@H](CC(N)=O)C(=O)N[C@H]2C(=O)N[C@H]3C(=O)N[C@H](C(=O)N[C@H](C(=O)O)c4cc(O)cc(O)c4-c4cc3ccc4O)[C@H](O[C@H]3C[C@](C)(N)[C@@H](O)[C@H](C)O3)c3ccc(c(Cl)c3)Oc3cc2cc(c3O[C@@H]2O[C@H](CO)[C@@H](O)[C@H](O)[C@H]2O[C@H]2C[C@](C)(NCc3ccc(Oc4ccc(C)cc4)cc3)[C@@H](O)[C@H](C)O2)Oc2ccc(cc2Cl)[C@H]1O [Compound 95, 4-[4-methylphenoxy]benzyl]",≤ 0.06,1
"CNC(CC(C)C)C(=O)NC1C(=O)NC(CC(N)=O)C(=O)NC2C(=O)NC3C(=O)NC(C(=O)NC(C(=O)O)c4cc(O)cc(O)c4-c4cc3ccc4O)C(OC3CC(C)(N)C(O)C(C)O3)c3ccc(c(Cl)c3)Oc3cc2cc(c3OC2OC(CO)C(O)C(O)C2OC2CC(C)(NCc3ccc(Oc4ccc(OC)cc4)cc3)C(O)C(C)O2)Oc2ccc(cc2Cl)C1O (stereo not drawn) [Compound 98, 4-[4-methoxyphenoxy]benzyl]",≤ 0.06,1
"CNC(CC(C)C)C(=O)NC1C(=O)NC(CC(N)=O)C(=O)NC2C(=O)NC3C(=O)NC(C(=O)NC(C(=O)O)c4cc(O)cc(O)c4-c4cc3ccc4O)C(OC3CC(C)(N)C(O)C(C)O3)c3ccc(c(Cl)c3)Oc3cc2cc(c3OC2OC(CO)C(O)C(O)C2OC2CC(C)(NCc3ccc(OC(C)=O)c(OC)c3)C(O)C(C)O2)Oc2ccc(cc2Cl)C1O (stereo not drawn) [Compound 99, 4-acetoxy-3-methoxybenzyl]",,32
"CNC(CC(C)C)C(=O)NC1C(=O)NC(CC(N)=O)C(=O)NC2C(=O)NC3C(=O)NC(C(=O)NC(C(=O)O)c4cc(O)cc(O)c4-c4cc3ccc4O)C(OC3CC(C)(N)C(O)C(C)O3)c3ccc(c(Cl)c3)Oc3cc2cc(c3OC2OC(CO)C(O)C(O)C2OC2CC(C)(NCc3ccc(CCc4ccccc4)cc3)C(O)C(C)O2)Oc2ccc(cc2Cl)C1O (stereo not drawn) [Compound 100, 4-[(2-phenyl)ethyl]benzyl]",≤ 0.06,2
"CCOc1cc(CNC2(C)CC(OC3C(Oc4c5cc6cc4Oc4ccc(cc4Cl)C(OC4CC(C)(N)C(O)C(C)O4)C4NC(=O)C(NC(=O)C6NC(=O)C(CC(N)=O)NC(=O)C(NC(=O)C(CC(C)C)NC)C(O)c6ccc(c(Cl)c6)O5)c5ccc(O)c(c5)-c5c(O)cc(O)cc5C(C(=O)O)NC4=O)OC(CO)C(O)C3O)OC(C)C2O)ccc1OCC1CCCCC1 (stereo not drawn) [Compound 105, 4-[cyclohexylmethoxy]-3-ethoxybenzyl]",,1
"CNC(CC(C)C)C(=O)NC1C(=O)NC(CC(N)=O)C(=O)NC2C(=O)NC3C(=O)NC(C(=O)NC(C(=O)O)c4cc(O)cc(O)c4-c4cc3ccc4O)C(OC3CC(C)(N)C(O)C(C)O3)c3ccc(c(Cl)c3)Oc3cc2cc(c3OC2OC(CO)C(O)C(O)C2OC2CC(C)(NCc3ccc(N4CCC(C)CC4)cc3)C(O)C(C)O2)Oc2ccc(cc2Cl)C1O (stereo not drawn) [Compound 129, 4-[4-methyl-1-piperidino]benzyl]",≤ 0.06,
"CNC(CC(C)C)C(=O)NC1C(=O)NC(CC(N)=O)C(=O)NC2C(=O)NC3C(=O)NC(C(=O)NC(C(=O)O)c4cc(O)cc(O)c4-c4cc3ccc4O)C(OC3CC(C)(N)C(O)C(C)O3)c3ccc(c(Cl)c3)Oc3cc2cc(c3OC2OC(CO)C(O)C(O)C2OC2CC(C)(NCc3ccc(N4CCOCC4)cc3)C(O)C(C)O2)Oc2ccc(cc2Cl)C1O (stereo not drawn) [Compound 147, 4-morpholinobenzyl]",≤ 0.06,
"CNC(CC(C)C)C(=O)NC1C(=O)NC(CC(N)=O)C(=O)NC2C(=O)NC3C(=O)NC(C(=O)NC(C(=O)O)c4cc(O)cc(O)c4-c4cc3ccc4O)C(OC3CC(C)(N)C(O)C(C)O3)c3ccc(c(Cl)c3)Oc3cc2cc(c3OC2OC(CO)C(O)C(O)C2OC2CC(C)(NCc3ccc([S+]([O-])c4ccccc4)cc3)C(O)C(C)O2)Oc2ccc(cc2Cl)C1O (stereo not drawn) [Compound 159, 4-[phenylsulfinyl]benzyl]",,8
"CNC(CC(C)C)C(=O)NC1C(=O)NC(CC(N)=O)C(=O)NC2C(=O)NC3C(=O)NC(C(=O)NC(C(=O)O)c4cc(O)cc(O)c4-c4cc3ccc4O)C(OC3CC(C)(N)C(O)C(C)O3)c3ccc(c(Cl)c3)Oc3cc2cc(c3OC2OC(CO)C(O)C(O)C2OC2CC(C)(NCc3ccc(OCC(O)CO)cc3)C(O)C(C)O2)Oc2ccc(cc2Cl)C1O (stereo not drawn) [Compound 177, 4-[2,3-dihydroxypropoxy]benzyl]",,16
"CNC(CC(C)C)C(=O)NC1C(=O)NC(CC(N)=O)C(=O)NC2C(=O)NC3C(=O)NC(C(=O)NC(C(=O)O)c4cc(O)cc(O)c4-c4cc3ccc4O)C(OC3CC(C)(N)C(O)C(C)O3)c3ccc(c(Cl)c3)Oc3cc2cc(c3OC2OC(CO)C(O)C(O)C2OC2CC(C)(NCc3ccc(-c4ccc(C)cc4)c(C)c3)C(O)C(C)O2)Oc2ccc(cc2Cl)C1O (stereo not drawn) [Compound 225, 4-[4-methylphenyl]-3-methylbenzyl]",,4
